Paper PMC7650794, “Pharmacological Modulation of Blood–Brain Barrier Permeability by Kinin Analogs in Normal and Pathologic Conditions” (Pharmaceuticals, 2020)
Non-standard residues stand in square brackets, D forms with d. Residues, ends and D or L forms follow the SMILES beside them. *: point of attachment. X1 = COc1ccc(C[C@@H](CN[C@@H](CCCNC(=N)N)C(=O)O)N*)cc1; Hyp = O=C(O)[C@@H]1C[C@@H](O)CN1; 2Thi = N[C@@H](Cc1cccs1)C(=O)O

Columns and labels:
human B2R [1] = target: T1, human B2R (Homo sapiens, UniProt P30411); test: IP-One accumulation assay, human B2R-HEK293 cells; type: cell-based; conditions: IP1 accumulation, 30 min, room temperature, pH 7.4, 50 mM LiCl, human B2R-HEK293, 15,000 cells per well; mean of two independent experiments performed in duplicates; read-out: IP1 Assays (EC50; nM)
T1 construct: expressed in transfected cells; host or cells: QBI HEK 293A cells, lentiviral transduction with pCDH-BDKRB2, puromycin selection
T1 sequence (P30411 1-391): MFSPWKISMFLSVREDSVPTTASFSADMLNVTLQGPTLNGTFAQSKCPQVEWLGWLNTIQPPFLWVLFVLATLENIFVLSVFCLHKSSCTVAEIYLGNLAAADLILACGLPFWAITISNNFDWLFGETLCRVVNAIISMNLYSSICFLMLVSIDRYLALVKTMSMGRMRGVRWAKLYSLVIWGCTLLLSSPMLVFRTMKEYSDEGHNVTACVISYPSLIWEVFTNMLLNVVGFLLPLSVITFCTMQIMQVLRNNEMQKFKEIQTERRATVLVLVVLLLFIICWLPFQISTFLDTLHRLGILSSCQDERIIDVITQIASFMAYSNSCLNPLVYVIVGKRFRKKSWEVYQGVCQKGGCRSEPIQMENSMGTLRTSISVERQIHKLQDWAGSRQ
Procedure: The IP-One assay was performed on living, adherent human B2R-HEK293 cells according to the manufacturer’s recommendations (Cisbio, #62IPAPEB, Bedford, MA, USA). […] IP1-d2 and anti-IP1-Cryptate were added for at least 1 h. Fluorescence signal was measured using a Tecan M1000 plate reader (excitation at 320 nm and emission at 620 and 665 nm). EC50 values were calculated by curve-fitting using GraphPad Prism 8.2.

[2] = system: angiotensin-converting enzyme (ACE, alias kininase II); conditions: cited from earlier work
human B2R [3] = target: T1, human B2R; test: Radioligand displacement binding assay, [3H]BK, human B2R-HEK293 cells; conditions: displacement of 1 nM [3H]BK, living adherent HEK293 cells stably expressing human B2R, serum-free DMEM, 1.5 h, 4 °C; mean of two independent experiments performed in duplicates
Procedure: The pCDH-BDKRB2 vector was produced from the plasmid pcDNA3.1/human BDKRB2 by PCR amplification using the primers 5′-[…]-3′ and 5′-[…]-3′, and introduced into pCDH-CMV-MCS-EF1 vector using BamHI et XbaI restriction sites. Lentiviruses were produced from pCDH-BDKRB2 vector in HEK293T cells using the X-tremeGENE HP transfection reagent (Millipore-Sigma, Oakville, ON, Canada). Lentiviruses were harvested 48 h post-transfection and used to infect QBI HEK 293A cells (ATCC). Transduced cells were selected using 5 µg/mL of puromycin (Thermo Fisher, Burlington, On, Canada).
Radioligand displacement binding assays were performed as we previously described, with slight modifications. HEK293 cells stably expressing human B2R were used for these assays (see text above). […] Radioactivity of samples was measured by a β-scintillation counter (PerkinElmer, Woodbridge, On, Canada). Binding affinities of peptides were expressed in terms of IC50 values—the molar concentration of an unlabeled agonist causing 50% displacement of specific binding (GraphPad Prism 8.2).

[4] = system: BBB, normal and focal-irradiated dog brains; conditions: in vivo, iv; cited from earlier work
Source text: Radiation therapy is part of the standard treatment paradigm for CNS tumors. The short-term effects of prior radiotherapy on the BBB opening induced by Labradimil have been investigated in normal and focal-irradiated dog brains. […] In this study, we focused on late post-radiotherapy complications leading to radionecrosis (Figure 4), which c ...

Compound: COc1ccc(C[C@@H](CN[C@@H](CCCNC(=N)N)C(=O)O)NC(=O)[C@@H]2CCCN2C(=O)[C@H](CO)NC(=O)[C@H](Cc2cccs2)NC(=O)CNC(=O)[C@@H]2C[C@@H](O)CN2C(=O)[C@@H]2CCCN2C(=O)[C@@H](N)CCCNC(=N)N)cc1 [Labradimil, [Hyp^3, Thi^5, (^4Me)Tyr^8(ΨCH2NH)Arg^9]-BK] (H-RP[Hyp]G[2Thi]SP-X1)
- EC50 (human B2R [1]): 47 nM
- protection against enzymatic degradation by ACE [2]: fully protected against enzymatic degradation by the angiotensin-converting enzyme
- IC50 (human B2R [3]): 17 nM
- vasogenic edema associated with focal radiation injury [4]: not exacerbating the vasogenic edema associated with focal radiation injury
